# Measured values as given in patent US20240101568A1, “NOVEL BENZAZEPINE SPIRO DERIVATIVE” (SHANGHAI JEMINCARE PHARMACEUTICAL CO., LTD, priority 2020, published 2024).
# Where two headings read alike, the source gives them in different places.
# How the values were obtained:
# LLC-PK1 cells = test: Compound proliferation inhibition assay on LLC-PK1 cells (vasopressin-induced proliferation); format: cell-based, Porcine; conditions: AVP 10 nM, verapamil 5 μM, 48 hr, FIG. 1
# From the text: Experimental Example 3: Compound Proliferation Inhibition Assay on LLC-PK1 Cells
# (1) Cell • Porcine kidney epithelial cells LLC-PK1: purchased from ATCC, Cat #CL-101
# (2) Reagents: • Medium 199, Gibco (Cat #11150059) • Fetal Bovine Serum (FBS), Australia, Jitai (Cat #FND500) • Trypsin-EDTA (0.25%), phenol red, Gibco (Cat #25200072) • PBS, pH 7.4, Gibco (Cat #10010031) • DMSO (Dimethyl Sulfoxide), Sigma (Cat #D8418) • Poly-D-lysine, Gibco (Cat #A3890401) • Vasopressin AVP: Ji'er Biochemical Co. Ltd. Customization • Verapamil hydrochloride, MCE (Cat #HY-A0064) • AlamarBlue™ HS Cell Viability Reagent, Invitrogen (Cat #A50100) […]
# LLC-PK1 cells were cultured in M199 medium supplemented with 10% fetal bovine serum at 37° C. with 5% CO2. […] LLC-PK1 cells were trypsinized, resuspended in serum-free M199 after centrifugation, counted, diluted to a cell suspension of 1×10^5/mL in serum-free M199 culture medium, and FBS was added to a final concentration of 1%. […] On the fifth day, the culture solution was carefully suctioned away, the cells were washed once with 200 μL PBS, 90 μL of M199 serum-free culture solution was carefully added, then 10 μL Alamarblue reagent was added, and the mixture was centrifuged at 300 rpm for 1 min, incubated at 37° C. for 2 h, and then detected. […]
# Data quality control: S/B, i.e., Max well average/Min well average, is calculated and […] is considered QC pass.
# [1] = target: T1, human vasopressin receptor V2R (Homo sapiens, UniProt P30518); test: IC50 assay for inhibition of vasopressin-induced V2R activation (cAMP increase, HTRF) in HeLa-V2R cells; format: cell-based
# T1 construct: host or cells: HeLa (lentivirus infection, puromycin selection)
# From the text: Experimental Example 1: IC50 Assay for Inhibition of Vasopressin-Induced Vasopressin Receptor V2R Activation by Compounds
# Hela cell line stably expressing the human vasopressin receptor V2R (HeLa-V2R): it was constructed by Shanghai Jikai Gene Chemical Technology Co. Ltd. using lentivirus infection method and stably expressed human V2R as verified by qPCR.
# DMEM cell culture medium: brand: Gibco, code: 11995065; fetal bovine serum: brand: Jitai, article No: FND500; 0.25% Trypsin: brand: Cibco, code: 25200072; Puromycin Dihydrochloride: brand: Gibco, code: A1113803; cAMP-GS HIRANGE KIT: brand: Cisbio, code: 62AM6PEC; IBMX: brand: Sigma, code: i5879; vasopressin AVP: Ji'er Biochemical (Shanghai) Co. Ltd.
# Hela-V2R cells were cultured in a DMEM medium supplemented with 10% fetal bovine serum at 37° C. with 5% CO2 and continuously selected for V2R-expressing cells by adding 2 μg/mL puromycin. On the day of the experiment, cells were trypsinized, washed twice with stimulation buffer from the cAMP-GS HIRANGE kit, resuspended, and counted to 1.6×10^6 cells/ml, and IBMX was added to a final concentration of 0.5 mM. 5 μL of cell suspension/well was transferred to a 384-well plate and 2.5 μL of test compound or DMSO (minimum Min, maximum Max control) was added at various concentrations (10 μM in a 3-fold dilution, 10 concentration gradients) to the corresponding wells. After 30 minutes of incubation at room temperature, 2.5 μL vasopressin AVP solution was added to a final concentration of 2.25 nM to the test compound wells and 2.5 μL stimulation buffer to the minimum wells and incubated for 60 minutes at 25 C. Simultaneously cAMP standard sample (3-fold dilution from 5.6 μM, 10 concentration points) was prepared, and 10 μL of cAMP standard sample was transferred to corresponding well of a 384-well plate. The cAMP-d2 fluorescence and anti-cAMP antibody probes provided in the kit were diluted 20-fold with lysis buffer in the cAMP-GS HIRANGE kit, 5 μL of each was taken and added into each well of the 384-well plate in turn, mixed well with simple centrifugation performed, and incubated at 25° C. for 2 hours and then detect. Sample detection: fluorescence intensity was measured at 615 nm and 665 nm using the HTRF method in the Envision plate reader. Two duplicate wells were made for each sample to be tested, and 32 duplicate wells were made for Min and Max respectively.
# The fluorescence intensity ratio FI665/615 at the wavelengths of 665 nm and 615 nm was calculated for each well sample. The standard curve was obtained by fitting the “log(inhibitor) vs response−variable slope (four parameters)” model in Prism 8.0 software with the logarithm of standard concentration as X and FI665/615X1000 as Y value. With the test well F1665/615X1000 as a Y value, the cAMP concentration corresponding to each sample was calculated according to the above standard curve in Prism 8.0 software.
# The % Inhibition (inhibition percentage) was calculated as follows:
# % inhibition=(Cmax−Ccmpd)/(Cmax−Cmm)×100
# Where Cmax is the average calculated cAMP concentration in all maximum wells; Cmm is the average calculated cAMP concentration in all […]; Ccmpd is the calculated cAMP concentration of the test compound.
# IC50s were calculated by non-linear regression using the “log(inhibitor) vs response−variable slope (four parameters)” model in Prism 8.0 software with % Inhibition (inhibition percentage) as Y value and log value of compound concentration as X, where Y=Bottom+(Top−Bottom)/(1+10^((Log IC50−X)*Hill Slope)).
# in vivo = test: in vivo; set-up: species or system mice
# Protocol: Experimental Example 2: In Vivo Pharmacokinetic Experiments with Compounds of the Disclosure
# This study evaluated in vivo pharmacokinetics in mice by intravenous and oral administration.
# Experimental methods and conditions: male CD1 mice, aged 6-8 weeks, had free access to drinking water and were given a single intravenous injection of test compound 1 mg/Kg (vehicle 5% DMSO/10% Solutol/85% Saline), 5 min, 15 min, 30 min, 1 hr, 2 hr, 4 hr, 8 hr, 24 hr or oral gavage administration of 10 mg/kg (vehicle 5% DMSO/10% Solutol/85% Saline) after administration. Orbital blood was collected at 15 min, 30 min, 1 hr, 2 hr, 4 hr, 6 hr, 8 hr, and 24 hr after administration. No less than 50 μL of each sample was collected. Heparin sodium was used for anticoagulation. After collection, the sample was placed on ice, and the plasma was separated and tested within 1 hour. Plasma concentrations were determined by liquid-phase tandem mass spectrometry (LC/MS/MS). Pharmacokinetic parameters were calculated using Phoenix WinNonlin software. The results are shown in Tables 2 and 3 with Tofapriptan as control 1.
# [2] = Human V2R Hela-Stable cell line OE2, AVP 2.25 nM, read-out: IC50 (nM), inhibition of the cAMP increase
# T1 sequence (P30518 whole entry): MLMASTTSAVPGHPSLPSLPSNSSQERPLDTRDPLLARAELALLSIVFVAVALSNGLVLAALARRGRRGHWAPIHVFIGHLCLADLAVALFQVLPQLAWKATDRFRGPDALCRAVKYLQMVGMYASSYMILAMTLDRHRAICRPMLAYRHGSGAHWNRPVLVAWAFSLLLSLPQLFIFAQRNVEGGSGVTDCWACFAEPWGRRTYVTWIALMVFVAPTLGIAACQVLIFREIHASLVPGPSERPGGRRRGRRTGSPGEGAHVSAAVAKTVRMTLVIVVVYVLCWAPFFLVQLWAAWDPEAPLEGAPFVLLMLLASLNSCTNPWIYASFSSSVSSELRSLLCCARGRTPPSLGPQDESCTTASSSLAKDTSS
smiles,measurement,setting,value
O=C(Nc1ccc(C(=O)N2CCC(F)(F)C3(CN3)c3cc(Cl)ccc32)cn1)c1ccccc1C(F)(F)F (centres unmarked) [Compound 1],inhibitory effect on the proliferation of LLC-PK1 cells,LLC-PK1 cells; compared with control 1,stronger than that of control 1
same,pro-proliferation effect on LLC-PK1 cells,LLC-PK1 cells,no pro-proliferation effect
same,IC50,[1],10.9 nM
same,AUC0-inf,"in vivo; male, CD1, mouse, iv, 1 mg/kg",719 ng·h/mL
same,clearance,"in vivo; male, CD1, mouse, iv, 1 mg/kg",23.2 mL/min/kg
same,half-life,"in vivo; male, CD1, mouse, iv, 1 mg/kg",55.2 min
same,AUC0-inf,"in vivo; male, CD1, mouse, po, 10 mg/kg",4060 ng·h/mL
same,Cmax,"in vivo; male, CD1, mouse, po, 10 mg/kg",1260 ng/mL
same,bioavailability,"in vivo; male, CD1, mouse, po, 10 mg/kg",56%
same,half-life,"in vivo; male, CD1, mouse, po, 10 mg/kg",36 min
Cc1ccccc1C(=O)Nc1ccc(C(=O)N2CCC(F)(F)C3(CN3)c3cc(Cl)ccc32)c(C)c1 (centres unmarked) [Compound 2],IC50,[1]; [2],9.35 nM
Cc1ccccc1C(=O)Nc1ccc(C(=O)N2CCCC3(CN3)c3cc(Cl)ccc32)cn1 (centres unmarked) [Compound 4],IC50,[1]; [2],3.14 nM
O=C(Nc1ccc(C(=O)N2CCCC3(CN3)c3cc(Cl)ccc32)cn1)c1ccccc1C(F)(F)F (centres unmarked) [Compound 5],IC50,[1]; [2],4.67 nM
Cc1cc(NC(=O)c2ccccc2Cl)ccc1C(=O)N1CCCC2(CN2)c2cc(Cl)ccc21 (centres unmarked) [Compound 8],IC50,[1]; [2],5.01 nM
Cc1ccccc1C(=O)Nc1ccc(C(=O)N2CCCC3(CN3)c3cc(Cl)ccc32)c(C)c1 (centres unmarked) [Compound 9],IC50,[1]; [2],4.88 nM
Cc1ccccc1C(=O)Nc1ccc(C(=O)N2CCCC3(CC3)c3cc(Cl)ccc32)c(C)c1 [Compound 16],IC50,[1]; [2],11.2 nM
Cc1ccccc1C(=O)Nc1ccc(C(=O)N2CCCC3(CCC3)c3cc(Cl)ccc32)c(C)c1 [Compound 17],IC50,[1]; [2],10.4 nM
Cc1ccccc1C(=O)Nc1ccc(C(=O)N2CCC(F)(F)C3(CN3)c3cc(Cl)ccc32)cn1 (centres unmarked) [Compound 20],IC50,[1]; [2],5.54 nM
O=C(Nc1ccc(C(=O)N2CCC(F)(F)C3(CN3)c3cc(Cl)ccc32)cn1)c1ccccc1Cl (centres unmarked) [Compound 21],IC50,[1]; [2],4.51 nM
"Cc1ccccc1C(=O)Nc1ccc(C(=O)N2CCCC(O)c3cc(Cl)ccc32)c(C)c1 (centres unmarked) [Control 1, Tofapriptan, reference compound]",AUC0-inf,"in vivo; mouse, iv, 1 mg/kg",367 ng·h/mL
same,Cl,"in vivo; mouse, iv, 1 mg/kg",45.5 mL/min/kg
same,T1/2,"in vivo; mouse, iv, 1 mg/kg",0.53 h
same,AUC0-inf,"in vivo; mouse, po, 10 mg/kg",1613 ng·h/mL
same,Cmax,"in vivo; mouse, po, 10 mg/kg",1307 ng/mL
same,F (%),"in vivo; mouse, po, 10 mg/kg",44%
same,T1/2,"in vivo; mouse, po, 10 mg/kg",1.58 h
